The compounds below were run on Rattus norvegicus (assay: Neuroprotective activity (1 mg/kg) administered intravenously was evaluated in rat model of focal cerebral ischemia induced by permanent occlusion of the middle cerebral artery(MCA)).
Format: functional
Work on `O[C@@H](CN1CCC(Cc2ccc(F)cc2)CC1)c1ccc(Cl)cc1` yielded an Infarct volume of 37.7 mm³. Compound `OC(CN1CCC(Cc2ccc(F)cc2)CC1)c1ccc(Cl)cc1` (racemic) [ELIPRODIL] has an Infarct volume of 33.3 mm³. `O[C@H](CN1CCC(Cc2ccc(F)cc2)CC1)c1ccc(Cl)cc1` gave an Infarct volume of 58.9 mm³.

From ChEMBL document CHEMBL1128848, “The asymmetric synthesis of both enantiomers of eliprodil” (1995)
